Results as given in paper PMC9977398, “Next-generation membrane-active glycopeptide antibiotics that also inhibit bacterial cell division” (Chemical Science, 2023).

Test system: ΔamiAC MG1655 E. coli
Test: Antibacterial activity against ΔamiAC MG1655 E. coli
Assay type: cell-based
Conditions: LB media, 18 h
Protocol: The bacterial amidases help cleave the septum in the final stage of cell division to produce daughter cells.[39] In the absence of amidases, chains of unseparated cells are formed (Fig. 5D). These retain distinct cytoplasmic compartments but share an outer membrane.[39] These cells are known to be hypersensitive to antibiotics and detergents. However, ΔamiAC mutations are resistant to killing by cephalexin.[38] The MIC of VanQAmC10 against the ΔamiAC mutant was reduced to 4 μM, while that of vancomycin was >10 μM. […] This is indicative of impaired cell division. Cell debris due to lysis after compound treatment are also visible. […]
resuspended in prewarmed BMM media. 1:1 BAC light dye was then added to the bacterial suspension and incubated for 5 minutes. The fluorescence in the GFP and Texas red channels was then observed under the microscope. The experiments were performed three times independently and the images are representative of results from three independent experiments. […]
About 6 μl of sample was immobilized on 1% agarose pad . DIC and fluorescence images were obtained at different time intervals using Nikon Eclipse Ti Microscope equipped with Nikon DS-U3 camera through Plan Apo 100×/1.40 oil objective. […]
from 10 μg/mL. The bacteria with compounds and untreated control were incubated for 18 h at 37 ̊C under shaking and OD600 was measured. […]

SMILES	MIC against the ΔamiAC mutant [µM]
CCCCCCCCCCNC(=O)C[N+](C)(C)CCCNC(=O)C1NC(=O)C2NC(=O)C(NC(=O)C3NC(=O)C(CC(N)=O)NC(=O)C(NC(=O)C(CC(C)C)NC)C(O)c4ccc(c(Cl)c4)Oc4cc3cc(c4OC3OC(CO)C(O)C(O)C3OC3CC(C)(N)C(O)C(C)O3)Oc3ccc(cc3Cl)C2O)c2ccc(O)c(c2)-c2c(O)cc(O)cc21 (centres unmarked) [VanQAmC10 (8)]	4
CN[C@H](CC(C)C)C(=O)N[C@H]1C(=O)N[C@@H](CC(N)=O)C(=O)N[C@H]2C(=O)N[C@H]3C(=O)N[C@H](C(=O)N[C@H](C(=O)O)c4cc(O)cc(O)c4-c4cc3ccc4O)[C@H](O)c3ccc(c(Cl)c3)Oc3cc2cc(c3O[C@@H]2O[C@H](CO)[C@@H](O)[C@H](O)[C@H]2O[C@H]2C[C@](C)(N)[C@H](O)[C@H](C)O2)Oc2ccc(cc2Cl)[C@H]1O [Vancomycin, reference compound]	> 10
